From patent US10213415B2, “Compounds as opioid receptor modulators” (JANSSEN PHARMACEUTICA NV, priority 2004, dated 2019) come the findings set out here.

For one assay, the target named is T1, human mu opioid receptor (Homo sapiens, UniProt P35372).
T1 construct: purchased Perkin Elmer RBHOMM400UA; host or cells: Chinese Hamster Ovary cells (recombinant expression)
Put plainly: Human Mu Opioid Receptor Binding Assay (CHO membranes, 3H-Damgo). The following applies: read-out: hKi μ. How it is done: Membranes from Chinese Hamster Ovary cells expressing the human […] opioid receptor (Perkin Elmer #RBHOMM400UA) are homogenized in assay buffer (50 mM Tris, pH 7.5 with 5 mM MgCl2) using a glass tissue grinder, Teflon pestle and a Steadfast Stirrer (Fisher Scientific). The concentration of membranes is adjusted to 300 μg/mL in assay buffer and 100 μL is dispensed into each well of the assay plate, a 96 well round bottom polypropylene plate. Compounds to be tested are solubilized in DMSO (Pierce), 10 mM, then diluted in assay buffer to 6× the desired final concentration. The ligand, ^3H-Damgo (Perkin Elmer #NET-902) is also diluted in assay buffer to 3.6 nM. In a second 96 well round bottom polypropylene plate, known as the premix plate, 60 μL of the 6× compound is combined with 60 μL of 3.6 nM ^3H-Damgo. From this premix plate 50 μL is transferred to the assay plate containing the membranes, in duplicate. The assay plate is incubated for 2 h at room temperature. A GF/C 96 well filter plate (Perkin Elmer #6005174) is pretreated with 0.3% polyethylenimine for 30 min. The contents of the assay plate are filtered through the filter plate using a Packard Filtermate Harvester, and washed 3 times with 0.9% saline that is 4° C. The filter plate is dried, the underside sealed, and 30 μL Microscint20 (Packard #6013621) added to each well. A Topcount-NXT Microplate Scintillation Counter (Packard) is used to measure emitted energies in the range of 2.9 to 35 KeV. […] Nonspecific binding is determined in the presence of 1 μM unlabelled Damgo (Tocris #1171).

For assay [1], the target named is T2, human delta subtype 2 opioid receptor (Homo sapiens, UniProt P41143).
T2 construct: purchased Perkin Elmer RBHODM400UA; host or cells: Chinese Hamster Ovary cells (recombinant expression)
T2 sequence (P41143 whole entry): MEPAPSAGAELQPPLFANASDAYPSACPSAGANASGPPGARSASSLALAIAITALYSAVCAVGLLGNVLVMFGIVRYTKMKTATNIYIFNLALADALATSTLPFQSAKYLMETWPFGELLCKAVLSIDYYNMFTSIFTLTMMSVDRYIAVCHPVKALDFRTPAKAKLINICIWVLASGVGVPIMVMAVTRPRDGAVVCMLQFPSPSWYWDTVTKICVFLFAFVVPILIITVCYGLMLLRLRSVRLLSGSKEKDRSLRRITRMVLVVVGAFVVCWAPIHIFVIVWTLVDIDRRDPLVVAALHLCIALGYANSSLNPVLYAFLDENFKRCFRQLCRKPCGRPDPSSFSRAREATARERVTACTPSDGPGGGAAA
Kind of assay: Human Delta Opioid Receptor Binding Assay (CHO membranes, 3H-Naltrindole). To be noted: read-out: hKi δ. The protocol: This assay is designed to test the ability of a compound to interfere with the binding of tritiated Naltrindole to the human delta subtype 2 opioid receptor. Membranes from Chinese Hamster Ovary cells expressing the human delta subtype 2 opioid receptor (Perkin Elmer #RBHODM400UA) are homogenized in assay buffer (50 mM Tris, pH 7.5 with 5 mM MgCl2) using a glass tissue grinder, Teflon pestle and a Steadfast Stirrer (Fisher Scientific). The concentration of membranes is adjusted to 100 μg/mL in assay buffer and 100 μL is dispensed into each well of the assay plate, a 96 well round bottom polypropylene plate. Compounds to be tested are solubilized in DMSO (Pierce), 10 mM, then diluted in assay buffer to 6× the desired final concentration. The ligand, ^3H-Naltrindole (Perkin Elmer #NET-1065) is also diluted in assay buffer to 6 nM. In a second 96 well round bottom polypropylene plate, known as the premix plate, 60 μL of the 6× compound is combined with 60 μL of 6 nM ^3H-Naltrindole. From this premix plate 50 μL is transferred to the assay plate containing the membranes, in duplicate. The assay plate is incubated for 30 min at room temperature. A GF/C 96 well filter plate (Perkin Elmer #6005174) is pretreated with 0.3% polyethylenimine for 30 min. The contents of the assay plate are filtered through the filter plate using a Packard Filtermate Harvester, and washed 3 times with 0.9% saline that is 4° C. The filter plate is dried, the underside sealed, and 30 μL Microscint20 (Packard #6013621) added to each well. A Topcount-NXT Microplate Scintillation Counter (Packard) is used to measure emitted energies in the range of 2.9 to 35 KeV. Results are compared to maximum binding, wells receiving no inhibitors. Nonspecific binding is determined in the presence of 1 μM unlabelled Naltrindole (Sigma #N115).

The target in assay [2] is T3, mu opioid receptor (CHO-hMOR cell membranes) (Homo sapiens, UniProt P35372).
T3 construct: purchased Receptor Biology, Inc. (Baltimore, Md.); host or cells: CHO cells (recombinant expression)
T3 sequence (P35372 whole entry): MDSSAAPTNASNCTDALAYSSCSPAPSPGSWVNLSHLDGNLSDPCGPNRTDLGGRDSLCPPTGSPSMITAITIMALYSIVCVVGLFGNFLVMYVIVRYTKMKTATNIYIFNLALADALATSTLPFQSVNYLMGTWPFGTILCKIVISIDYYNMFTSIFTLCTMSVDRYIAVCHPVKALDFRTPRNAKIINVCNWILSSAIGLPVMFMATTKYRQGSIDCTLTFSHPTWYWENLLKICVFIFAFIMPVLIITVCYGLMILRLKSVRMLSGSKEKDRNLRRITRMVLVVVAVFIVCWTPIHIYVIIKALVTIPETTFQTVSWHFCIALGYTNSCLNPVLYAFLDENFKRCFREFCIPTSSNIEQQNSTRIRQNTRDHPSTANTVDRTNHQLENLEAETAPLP
Kind of assay: Mu Opioid Receptor Functional Assay: [35S]GTPγS Binding in CHO-hMOR Cell Membranes, Versions 1 and 2. The class given is biochemical. To be noted: for MOR GTP binding assay_v2 (% I): version 2, % inhibition of agonist-stimulated GTPγS binding; for EC50: version 2, read-out: MOR GTP binding assay v2 EC50. The protocol:
CHO-hMOR cell membranes were purchased from Receptor Biology, Inc. (Baltimore, Md.). About 10 mg/ml of membrane protein was suspended in 10 mM TRIS-HCl pH 7.2, 2 mM EDTA, 10% sucrose, and the suspension kept on ice. One ml of membranes was added to 15 ml cold binding assay buffer containing 50 mM HEPES, pH 7.6, 5 mM MgCl2, 100 mM NaCl, 1 mM DTT and 1 mM EDTA. The membrane suspension was homogenized with a Polytron and centrifuged at 3,000 rpm for 10 min. The supernatant was then centrifuged at 18,000 rpm for 20 min. The pellet was resuspended in 10 ml assay buffer with a Polytron.
The membranes were preincubated with wheat germ agglutinin coated SPA beads (Amersham) at 25° C. for 45 min in the assay buffer. The SPA bead (5 mg/ml) coupled membranes (10 μg/ml) were then incubated with 0.5 nM [^35S]GTPγS in the assay buffer. […] A range of concentrations of receptor agonists was used to stimulate [^35S]GTPγS binding. Both basal and non-specific binding was tested in the absence of agonist; non-specific binding determination included 10 μM unlabeled GTPγS.
Compounds were tested for function as antagonists by evaluating their potential to inhibit agonist-stimulated GTPγS binding. Radioactivity was quantified on a Packard TopCount. The following parameters were calculated:
[formula] % Inhibition=(% stimulation by 1 μM SNC80−% stimulation by 1 μM SNC80 in presence of test compound)×100/(% Stimulation by 1 μM SNC80−100)
EC50 values were calculated using GraphPad Prism.
On the technique in general: GTPγS is a poorly hydrolysed GTP analogue; its binding reports G protein activation.

T1 sequence (P35372 whole entry): as above

On to `Cc1cc(O)cc(C)c1C[C@H](N)C(=O)N(C(C)C)[C@H](c1nc(-c2ccccc2)c[nH]1)C(C)C` [Cpd 162], for which the Ki at human mu opioid receptor is 0.0076 µM; in assay [1], 0.173 µM.

With `Cc1cc(O)cc(C)c1C[C@H](N)C(=O)N(Cc1nc(-c2ccc(F)cc2F)c(C)[nH]1)C(C)C` [Cpd 71], the Ki was found to be 0.00057 µM at human mu opioid receptor and 0.102 µM in assay [1]. Usually EC50 stands for the concentration giving half of the maximal effect. In the case of `COC(=O)c1ccnc(CN(C(=O)[C@@H](N)Cc2c(C)cc(C(N)=O)cc2C)[C@@H](C)c2nc(-c3ccccc3)c[nH]2)c1` [Cpd 312], in assay [2], the “MOR GTP binding assay_v2 (% I)” value is given as 35.00% and the EC50 came out at 0.0587 µM.

Consider `Cc1cc(O)cc(C)c1C[C@H](N)C(=O)N(Cc1nc(-c2cccc(C#N)c2)c(C)[nH]1)C(C)C` [Cpd 60], for which the Ki at human mu opioid receptor amounted to 0.002 µM; in assay [1], 0.114 µM. Regarding `Cc1cc(O)cc(C)c1CC(N)C(=O)Oc1cc(C)c(C[C@H](N)C(=O)N(C(C)C)[C@@H](CC(C)C)c2nc(-c3ccccc3)c[nH]2)c(C)c1` (stereo partly shown) [Cpd 139], the Ki is 0.058 µM at human mu opioid receptor and 1.26 µM in assay [1]. On to `Cc1cc(O)cc(C)c1C[C@H](N)C(=O)N(Cc1nc(-c2ccc(S(C)(=O)=O)cc2)c(C)[nH]1)C(C)C` [Cpd 62], for which the figures for the Ki (at human mu opioid receptor; in assay [1]) were 0.0024 µM and 0.069 µM, respectively. Regarding `Cc1cc(O)cc(C)c1C[C@H](N)C(=O)N(Cc1cccc2ccccc12)[C@@H](C)c1nc(-c2ccccc2)c[nH]1` [Cpd 99], the values for the Ki (at human mu opioid receptor; in assay [1]) were 0.016 µM and 0.0193 µM, respectively.

For the compound `Cc1cc(O)cc(C)c1C[C@H](N)C(=O)N(Cc1ccco1)[C@@H](C)c1nc(-c2ccccc2)c[nH]1` [Cpd 54], the Ki was determined as 0.0011 µM at human mu opioid receptor and 0.172 µM in assay [1]. With `Cc1cc(O)cc(C)c1C[C@H](N)C(=O)N(C(C)C)[C@@H](COCc1ccccc1)c1nc(-c2ccccc2)c[nH]1` [Cpd 138], the Ki was found to be 0.104 µM at human mu opioid receptor and 1.18 µM in assay [1]. As for `Cc1cc(C(N)=O)cc(C)c1C[C@H](N)C(=O)N(Cc1ccccc1)[C@@H](C)c1nc(-c2ccc(C(F)(F)F)cc2)c(C)[nH]1` [Cpd 74], the Ki on human mu opioid receptor came to 0.0098 µM; in assay [1], 0.063 µM. On to `CC(C)N(C(=O)[C@@H](N)Cc1cccc(C#N)c1)[C@@H](Cc1ccccc1)c1nc(-c2ccccc2)c[nH]1` [Cpd 157], for which the Ki at human mu opioid receptor was 0.0022 µM; in assay [1] it was over 10 µM. As to `Cc1cc(O)cc(C)c1C[C@H](N)C(=O)N(Cc1nc(-c2ccc(C(=O)O)cc2)c(C)[nH]1)C(C)C` [Cpd 123], the Ki at human mu opioid receptor was 0.047 µM; in assay [1] it was 0.084 µM.

As to `Cc1cc(O)cc(C)c1C[C@H](N)C(=O)N(Cc1nc(-c2cc(Cl)cc(Cl)c2)c(C)[nH]1)C(C)C` [Cpd 141], the Ki was determined as 0.052 µM at human mu opioid receptor and 0.252 µM in assay [1].

For `CC(=O)Oc1ccc(CN(C(=O)[C@@H](N)Cc2c(C)cc(O)cc2C)[C@@H](C)c2nc(-c3ccccc3)c[nH]2)cc1` [Cpd 88], the Ki on human mu opioid receptor is 0.0058 µM; in assay [1] it was 0.0162 µM. For `Cc1cc(C(N)=O)cc(C)c1C[C@H](N)C(=O)N(Cc1nc(-c2ccccc2)c[nH]1)C(C)C` [Cpd 86], the Ki on human mu opioid receptor came to 0.001 µM; in assay [1] it was 0.4 µM.

As for `Cc1cc(O)cc(C)c1C[C@H](N)C(=O)N(C(C)C)[C@H](C)c1nc(-c2ccc(F)cc2)c[nH]1` [Cpd 82], the Ki at human mu opioid receptor is 0.00239 µM; in assay [1], 0.046 µM.

As to `COc1ccc(-c2nc(CN(C(=O)[C@@H](N)Cc3c(C)cc(O)cc3C)C(C)C)[nH]c2C)cc1` [Cpd 125], the Ki is 0.0086 µM at human mu opioid receptor and 0.237 µM in assay [1]. On to `Cc1cc(C(N)=O)cc(C)c1C[C@H](N)C(=O)N(Cc1ccnc(C(=O)O)c1)[C@@H](C)c1nc(-c2ccccc2)c[nH]1` [Cpd 316], for which, in assay [2], the “MOR GTP binding assay_v2 (% I)” value is given as 76% and the EC50 was 0.0241 µM. For `Cc1cc(O)cc(C)c1C[C@H](N)C(=O)N(Cc1cccc(Oc2ccccc2)c1)[C@@H](C)c1nc(-c2ccccc2)c[nH]1` [Cpd 98], the Ki is 0.048 µM at human mu opioid receptor and 0.054 µM in assay [1]. In the case of `Cc1cc(O)cc(C)c1C[C@H](N)C(=O)N[C@@H](CO)c1nc(-c2ccccc2)c[nH]1` [Cpd 119], the Ki is 0.185 µM on human mu opioid receptor and over 10 µM in assay [1]. Taken in the same sequence, the figures for `Cc1cc(O)cc(C)c1C[C@H](N)C(=O)N(C(C)C)[C@H](CO)c1nc(-c2ccccc2)c[nH]1` [Cpd 63] were 0.058 µM and 0.473 µM. With `COc1cccc(-c2nc(CN(C(=O)[C@@H](N)Cc3c(C)cc(O)cc3C)C(C)C)[nH]c2C)c1` [Cpd 142], the results for the Ki (at human mu opioid receptor; in assay [1]) were 0.0082 µM and 0.454 µM, respectively. As to `Cc1[nH]c(CN(C(=O)[C@@H](N)Cc2ccc(O)cc2)C(C)C)nc1-c1ccccc1` [Cpd 154], the Ki was 0.001 µM on human mu opioid receptor and over 10 µM in assay [1]. On to `Cc1cc(C(N)=O)cc(C)c1C[C@H](N)C(=O)N(CCCc1ccccc1)[C@@H](C)c1nc(-c2ccccc2)c[nH]1` [Cpd 108], for which the Ki on human mu opioid receptor is 0.0235 µM; in assay [1], 0.0433 µM. Consider `Cc1cc(O)cc(C)c1C[C@H](N)C(=O)N(Cc1nc(-c2cc(F)ccc2F)c(C)[nH]1)C(C)C` [Cpd 61], for which the Ki was found to be 0.003 µM on human mu opioid receptor and 0.243 µM in assay [1].

`Cc1cc(O)cc(C)c1C[C@H](N)C(=O)N(Cc1ccccc1)[C@@H](Cc1ccccc1)c1nc(-c2ccccc2)c[nH]1` [Cpd 105]: the figures for the Ki (on human mu opioid receptor; in assay [1]) were 0.41 µM and 0.742 µM, respectively. For `Cc1cc(O)cc(C)c1C[C@H](N)C(=O)N(C(C)C)[C@@H](Cc1ccccc1)c1nc(-c2ccccc2)c[nH]1` [Cpd 159], the results for the Ki (on human mu opioid receptor; in assay [1]) were 0.0086 µM and 0.4 µM, respectively. `Cc1cc(O)cc(C)c1C[C@H](N)C(=O)N(Cc1nc(-c2ccccc2-c2ccccc2)c(C)[nH]1)C(C)C` [Cpd 145]: in assay [1], the Ki worked out at 0.267 µM. Turning to `Cc1[nH]c(CN(C(=O)[C@@H](N)Cc2ccc(O)cc2)C(C)C)nc1-c1cccnc1` [Cpd 153], the Ki in assay [1] is over 10 µM. As to `COc1ccc(CN(C(=O)[C@@H](N)Cc2c(C)cc(C(N)=O)cc2C)[C@@H](C)c2nc(-c3ccccc3)c[nH]2)cc1-c1nnn(C(C)(C)C)n1` [Cpd 309], in assay [2], the “MOR GTP binding assay_v2 (% I)” value worked out at 47.00% and the EC50 was determined as 0.023 µM. Turning to `COC(=O)N[C@@H](Cc1c(C)cc(C(N)=O)cc1C)C(=O)N(Cc1ccc(OC)c(C(=O)OC)c1)[C@@H](C)c1nc(-c2ccccc2)c[nH]1` [Cpd 310], in assay [2], the “MOR GTP binding assay_v2 (% I)” value is 51.00% and the EC50 came out at 3.92 µM. In the case of `Cc1[nH]c(CN(C(=O)[C@@H](N)Cc2ccc(O)cc2)C(C)C)nc1-c1ccsc1` [Cpd 152], in assay [1], the Ki was over 10 µM.
